What was measured:
[1] = tested on: PAR2-AP-induced itch; assay: PAR2-AP-induced pruritus in mice (scratching bouts); assay type: in vivo, BALB/c mice; settings: 30 mg/kg i.p., PAR2-AP 100 μg/50 μL
Description: To investigate the antipruritic effect of berbamine, we observed the effect of berbamine on pruritogen-induced scratching behavior in BALB/c mice. Mice were transferred to clear cages and treated with berbamine intraperitoneally after a 30 min acclimatization period. Mouse behavior was recorded for 30 min right after the subcutaneous injection of pruritogens to the nape 30 min after berbamine treatment (Figure 7A). […] We further investigated the effect of berbamine on pruritus caused by other pruritogens.
Figure 7 Effect of berbamine on acute pruritogen-induced pruritus in mice: (A) Scheme of acute pruritogen-induced pruritus mouse model. […] Statistical significance of differences between each group and CQ group was assessed using one-way ANOVA with Tukey’s post hoc test. * p < 0.05, ** p < 0.01, *** p < 0.001. […] Statistical significance of differences was determined using Student’s t-test. […]
[…] six-week-old BALB/c male mice were purchased from DBL (Chungcheong-do, Republic of Korea), and an additional 1 week was given for accommodation. […] After 30 min, pruritogen compounds (i.e., CQ, histamine, PAR2-AP, and DCA) were subcutaneously administered into the nape, and scratching bouts were recorded for 30 min. […] The total number of scratching bouts was counted by recording the number of scratching bouts in the recorded video over 30 min of observation time.

[2] = parameters: method as in PMID 29100757; settings: human pharmacokinetic study; cited from earlier work

**Q.** With `COc1cc2c3cc1Oc1c(OC)c(OC)cc4c1[C@@H](Cc1ccc(O)c(c1)Oc1ccc(cc1)C[C@@H]3N(C)CC2)N(C)CC4` [berbamine] as the molecule, how does the “effect on total scratching bouts induced by PAR2-AP” value [1] read?
**A.** Its value is “no significant effect”.

**Q.** And the half-life [2]?
**A.** The half-life was 39.25 h.

Source: publication PMC9698483, “Berbamine Reduces Chloroquine-Induced Itch in Mice through Inhibition of MrgprX1” (International Journal of Molecular Sciences, 2022)
